Assay results reported in PMC5380659, “Unique charge-dependent constraint on collagen recognition by integrin α10β1” (Matrix Biology, 2017).

Assays:
[1] = test system: C2C12-α1β1 cells; assay: xCELLigence real-time adhesion of C2C12-α1β1 cells; type: cell-based, mouse; conditions: up to 1 h, compared to GFOGER, Fig. 6A
[2] = test system: Other I domains that lack such a positive residue; assay: SPBA of I domains that lack the positive residue (wild type); type: binding, human; conditions: I domains lacking a positive residue at position 215
Experimental: Fig. 8 Arginine substitution of I domain surface reduces binding to Toolkit peptide III-4. Wild type I domain from α1, α2 and α10 were allowed to adhere to Toolkit peptide III-4 that contains GROGER, as described in Fig. 1, and binding is shown in A, B and C, respectively. In D and E, the natural glutamine residues of α1, Q214, and of α2, Q215, was replaced with arginine. In F, the natural arginine, R215, of α10 was replaced with glutamine.
I domain adhesion was determined colorimetrically, as described, here termed solid phase binding assay (SPBA). Peptides were coated at 10 μg/ml for 1 h at 22 °C on Immulon-2 HB 96-well plates (Thermo Life Sciences, Basingstoke, UK), and blocked for 1 h with 200 μl of TBS containing 50 mg/ml bovine serum albumin. Wells were washed four times with 200 μl of the adhesion buffer (TBS with 1 mg/ml bovine serum albumin) before adding 100 μl of adhesion buffer containing 10 μg/ml of recombinant GST I domains in the presence of either 2 mM MgCl2 or EDTA for 1 h at room temperature. Wells were washed five times with 200 μl of adhesion buffer containing MgCl2 or EDTA, before adding 100 μl of adhesion buffer containing the anti-GST-HRP conjugate at 1:10,000 dilution for 1 h at room temperature. After washing, colour was developed using an ImmunoPure TMB Substrate Kit (Pierce) according to the manufacturer's instructions.

“GROGER [short triple-helical peptide containing GROGER]” was tested, and the “Adhesion of C2C12-α1β1 cells to short THP (time course)” value [1] was “bound quite well” and the “Binding by other I domains” value [2] was “bind GROGER well”.
